According to ChEMBL document CHEMBL1144680, “Structure-guided design of aminopyrimidine amides as potent, selective inhibitors of lymphocyte specific kinase: synthesis, structure-activity relationships, and inhibition of in vivo T cell activation” (J Med Chem, 2008):
Active and inactive are the calls of the source. The calls are words filed in the database; no cut-off is given here.

Legend:
[1] = system: Mus musculus; assay: Inhibition of anti-CD3-induced IL2 production in BALB/c mouse at 10 mg/kg, po by ELISA relative to control; type: functional
[2] = Inhibition of Aurora1 by HTRF assay
[3] = Volume of distribution at steady state in Sprague-Dawley rat at 0.5 mg/kg, iv; type: ADME, organism-based; parameters: dose 0.5 mg/kg, route intravenous; settings: in vivo, read-out: Vdss
[4] = Cmax in Sprague-Dawley rat at 2 mg/kg, po; type: ADME, organism-based; parameters: dose 2 mg/kg, route oral; settings: in vivo
[5] = Clearance in Sprague-Dawley rat at 0.5 mg/kg, iv; type: ADME, organism-based; parameters: dose 0.5 mg/kg, route intravenous; settings: in vivo
[6] = Inhibition of PKBalpha by HTRF assay
[7] = target: Vascular endothelial growth factor receptor 2 (Homo sapiens, UniProt P35968); assay: Inhibition of KDR by HTRF assay
[8] = system: Jurkat; assay: Inhibition of IL2 production in human Jurkat cells stimulated with phorbol 12-myristyl 13-acetate in presence of calcium ionophore; type: functional, cell-based
[9] = Oral bioavailability in Sprague-Dawley rat at 2 mg/kg; type: ADME, organism-based; settings: in vivo
[10] = target: Ribosomal protein S6 kinase alpha-5 (Homo sapiens, UniProt O75582); assay: Inhibition of MSK1 by HTRF assay
[11] = Inhibition of Aurora2 by HTRF assay
[12] = target: Tyrosine-protein kinase Lck (Homo sapiens, UniProt P06239)
Description: Inhibition of Lck by HTRF assay

[13] = Inhibition of PKAalpha by HTRF assay
[14] = system: Blood; assay: Inhibition of anti-CD3-induced IL2 production in human whole blood by ELISA; type: functional, tissue-based
[15] = target: Tyrosine-protein kinase ITK/TSK (Homo sapiens, UniProt Q08881); assay: Inhibition of Itk by HTRF assay
Sequence of Tyrosine-protein kinase ITK/TSK (Q08881 whole entry): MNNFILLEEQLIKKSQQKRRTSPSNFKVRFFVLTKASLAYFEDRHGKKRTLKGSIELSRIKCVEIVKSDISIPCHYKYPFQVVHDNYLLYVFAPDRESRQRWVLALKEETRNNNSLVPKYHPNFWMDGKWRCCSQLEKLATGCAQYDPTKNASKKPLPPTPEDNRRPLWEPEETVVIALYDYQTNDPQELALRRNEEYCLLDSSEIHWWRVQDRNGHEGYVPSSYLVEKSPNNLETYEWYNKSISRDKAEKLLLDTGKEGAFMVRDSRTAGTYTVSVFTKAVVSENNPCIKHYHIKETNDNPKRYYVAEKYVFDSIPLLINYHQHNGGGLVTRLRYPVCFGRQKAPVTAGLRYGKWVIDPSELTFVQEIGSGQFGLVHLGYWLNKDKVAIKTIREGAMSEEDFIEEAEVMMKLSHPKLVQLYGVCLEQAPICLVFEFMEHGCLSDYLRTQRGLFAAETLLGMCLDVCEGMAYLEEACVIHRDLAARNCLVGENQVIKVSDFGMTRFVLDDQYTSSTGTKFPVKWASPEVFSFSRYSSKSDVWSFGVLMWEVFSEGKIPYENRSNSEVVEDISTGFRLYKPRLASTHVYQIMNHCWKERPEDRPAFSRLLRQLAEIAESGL

[16] = Tmax in Sprague-Dawley rat at 2 mg/kg; type: ADME, organism-based; parameters: dose 2 mg/kg; settings: in vivo
[17] = target: Mitogen-activated protein kinase 9 (Homo sapiens, UniProt P45984); assay: Inhibition of JNK2 by HTRF assay
Sequence of Mitogen-activated protein kinase 9 (P45984 whole entry): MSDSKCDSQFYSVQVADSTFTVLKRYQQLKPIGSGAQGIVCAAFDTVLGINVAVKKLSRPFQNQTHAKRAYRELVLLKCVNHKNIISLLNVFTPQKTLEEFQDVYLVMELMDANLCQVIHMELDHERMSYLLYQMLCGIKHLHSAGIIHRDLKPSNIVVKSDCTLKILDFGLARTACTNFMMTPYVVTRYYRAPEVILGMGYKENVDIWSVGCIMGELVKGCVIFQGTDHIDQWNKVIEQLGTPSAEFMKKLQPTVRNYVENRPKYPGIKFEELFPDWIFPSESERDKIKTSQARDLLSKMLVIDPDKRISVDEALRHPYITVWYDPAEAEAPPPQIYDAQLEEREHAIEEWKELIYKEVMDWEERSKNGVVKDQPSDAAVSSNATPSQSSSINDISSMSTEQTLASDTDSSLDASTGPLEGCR

[18] = Protein binding in mouse plasma; type: ADME, cell-free; settings: read-out: PB (converted)
[19] = system: Mus musculus; assay: Plasma concentration in BALB/c mouse at 30 mg/kg, po; type: ADME, organism-based; parameters: dose 30 mg/kg, route oral; settings: in vivo
[20] = system: Mus musculus; assay: Inhibition of anti-CD3-induced IL2 production in orally dosed BALB/c mouse by ELISA; type: functional; settings: po
[21] = Protein binding in rat plasma; type: ADME, cell-free; settings: read-out: PB (converted)
[22] = system: Plasma; assay: Unbound EC50 of ligand in mouse plasma
[23] = system: Lymphocyte; assay: Inhibition of T cell activation in human peripheral blood lymphocytes by mixed lymphocyte reaction; type: functional, cell-based
[24] = target: T1, Tyrosine-protein kinase JAK3 (Homo sapiens, UniProt P52333); assay: Inhibition of Jak3 by HTRF assay
T1 sequence (P52333 whole entry): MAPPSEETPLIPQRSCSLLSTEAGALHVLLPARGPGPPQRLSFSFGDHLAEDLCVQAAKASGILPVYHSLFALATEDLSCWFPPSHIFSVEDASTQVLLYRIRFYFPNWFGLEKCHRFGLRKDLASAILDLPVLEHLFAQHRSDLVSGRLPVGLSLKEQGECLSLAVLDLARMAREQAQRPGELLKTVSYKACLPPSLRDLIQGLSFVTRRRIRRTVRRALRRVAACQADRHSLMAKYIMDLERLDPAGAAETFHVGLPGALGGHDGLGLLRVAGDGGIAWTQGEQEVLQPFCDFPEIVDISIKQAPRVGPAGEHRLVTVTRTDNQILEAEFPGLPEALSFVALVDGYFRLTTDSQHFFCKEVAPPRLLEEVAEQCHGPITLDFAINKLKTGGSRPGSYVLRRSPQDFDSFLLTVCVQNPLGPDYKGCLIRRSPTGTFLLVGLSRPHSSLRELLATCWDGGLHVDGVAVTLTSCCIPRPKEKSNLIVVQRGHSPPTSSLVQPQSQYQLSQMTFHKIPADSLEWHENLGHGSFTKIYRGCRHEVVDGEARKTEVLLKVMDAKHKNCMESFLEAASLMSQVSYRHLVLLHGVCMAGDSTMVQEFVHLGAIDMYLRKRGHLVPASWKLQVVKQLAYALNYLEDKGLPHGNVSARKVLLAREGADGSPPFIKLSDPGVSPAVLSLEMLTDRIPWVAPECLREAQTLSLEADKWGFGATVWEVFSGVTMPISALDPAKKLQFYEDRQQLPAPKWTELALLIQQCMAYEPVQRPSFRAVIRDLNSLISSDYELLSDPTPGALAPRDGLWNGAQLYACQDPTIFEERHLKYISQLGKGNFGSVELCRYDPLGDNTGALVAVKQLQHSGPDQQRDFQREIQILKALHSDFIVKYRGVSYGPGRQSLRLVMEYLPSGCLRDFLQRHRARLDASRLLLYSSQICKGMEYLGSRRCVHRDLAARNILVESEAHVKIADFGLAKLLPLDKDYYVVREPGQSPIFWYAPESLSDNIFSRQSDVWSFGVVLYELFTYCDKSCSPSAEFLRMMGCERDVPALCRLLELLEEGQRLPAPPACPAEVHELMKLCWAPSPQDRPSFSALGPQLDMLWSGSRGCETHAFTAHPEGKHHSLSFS

[25] = Half life in Sprague-Dawley rat at 0.5 mg/kg, iv; type: ADME, organism-based; parameters: dose 0.5 mg/kg, route intravenous; settings: in vivo
[26] = AUC (0 to infinity) in Sprague-Dawley rat at 2 mg/kg, po; type: ADME, organism-based; parameters: time infinity, dose 2 mg/kg, route oral; settings: plasma
[27] = Inhibition of IRK by HTRF assay
[28] = system: Mus musculus; assay: Inhibition of anti-CD3-induced IL2 production in BALB/c mouse at 30 mg/kg, po by ELISA relative to control; type: functional
[29] = target: High affinity nerve growth factor receptor (Homo sapiens, UniProt P04629); assay: Inhibition of TrkA by HTRF assay
[30] = target: Proto-oncogene tyrosine-protein kinase Src (Homo sapiens, UniProt P12931); assay: Inhibition of Src by HTRF assay
[31] = target: Mitogen-activated protein kinase 3 (Homo sapiens, UniProt P27361); assay: Inhibition of ERK1 by HTRF assay
[32] = system: Mus musculus; assay: Inhibition of anti-CD3-induced IL2 production in BALB/c mouse at 100 mg/kg, po by ELISA relative to control; type: functional
[33] = target: Ribosomal protein S6 kinase beta-1 (Homo sapiens, UniProt P23443); assay: Inhibition of P70S6K by HTRF assay
Sequence of Ribosomal protein S6 kinase beta-1 (P23443 whole entry): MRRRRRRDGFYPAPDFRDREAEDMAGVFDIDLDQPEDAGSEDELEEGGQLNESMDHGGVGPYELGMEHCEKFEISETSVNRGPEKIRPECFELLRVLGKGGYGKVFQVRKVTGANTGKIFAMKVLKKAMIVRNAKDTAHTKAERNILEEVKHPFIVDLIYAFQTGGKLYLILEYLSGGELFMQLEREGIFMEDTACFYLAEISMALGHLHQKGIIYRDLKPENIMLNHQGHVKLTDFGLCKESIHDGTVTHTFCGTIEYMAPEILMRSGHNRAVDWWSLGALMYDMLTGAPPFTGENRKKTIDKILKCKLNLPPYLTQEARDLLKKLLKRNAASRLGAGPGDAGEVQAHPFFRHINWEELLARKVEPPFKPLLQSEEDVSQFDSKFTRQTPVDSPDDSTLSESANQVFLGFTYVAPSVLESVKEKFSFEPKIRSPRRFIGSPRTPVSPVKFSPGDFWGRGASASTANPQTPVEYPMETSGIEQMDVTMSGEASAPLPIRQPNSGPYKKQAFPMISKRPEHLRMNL

[34] = target: Macrophage-stimulating protein receptor (Homo sapiens, UniProt Q04912); assay: Inhibition of RON by HTRF assay
[35] = target: Tyrosine-protein kinase Lyn (Homo sapiens, UniProt P07948); assay: Inhibition of Lyn by HTRF assay
[36] = target: Serine/threonine-protein kinase pim-1 (Homo sapiens, UniProt P11309); assay: Inhibition of PIM1 by HTRF assay
Sequence of Serine/threonine-protein kinase pim-1 (P11309 whole entry): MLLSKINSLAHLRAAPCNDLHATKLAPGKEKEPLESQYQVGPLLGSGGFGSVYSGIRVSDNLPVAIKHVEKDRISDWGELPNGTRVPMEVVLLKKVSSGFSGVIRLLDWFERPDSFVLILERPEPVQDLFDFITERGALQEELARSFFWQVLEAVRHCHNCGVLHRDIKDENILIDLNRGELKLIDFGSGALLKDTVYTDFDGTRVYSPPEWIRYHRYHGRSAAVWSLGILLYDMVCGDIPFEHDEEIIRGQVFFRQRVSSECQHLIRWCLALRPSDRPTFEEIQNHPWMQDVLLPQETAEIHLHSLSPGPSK

[37] = system: Mus musculus; assay: Plasma concentration in BALB/c mouse at 10 mg/kg, po; type: ADME, organism-based; parameters: dose 10 mg/kg, route oral; settings: in vivo
[38] = target: Tyrosine-protein kinase Fyn (Homo sapiens, UniProt P06241); assay: Inhibition of Fyn by HTRF assay
[39] = target: Tyrosine-protein kinase SYK (Homo sapiens, UniProt P43405); assay: Inhibition of Syk by HTRF assay
[40] = species: Mus musculus; assay: Inhibition of anti-CD3-induced IL2 production in BALB/c mouse; type: functional
[41] = target: Tyrosine-protein kinase ABL1 (Homo sapiens, UniProt P00519); assay: Inhibition of Abl by HTRF assay
[42] = system: Blood; assay: Inhibition of LPS-induced TNFalpha production in human whole blood by ELISA; type: functional, tissue-based
[43] = system: Mus musculus; assay: Plasma concentration in BALB/c mouse at 100 mg/kg, po; type: ADME, organism-based; parameters: dose 100 mg/kg, route oral; settings: in vivo
[44] = target: Mitogen-activated protein kinase 14 (Homo sapiens, UniProt Q16539); assay: Inhibition of p38alpha by HTRF assay
Sequence of Mitogen-activated protein kinase 14 (Q16539 whole entry): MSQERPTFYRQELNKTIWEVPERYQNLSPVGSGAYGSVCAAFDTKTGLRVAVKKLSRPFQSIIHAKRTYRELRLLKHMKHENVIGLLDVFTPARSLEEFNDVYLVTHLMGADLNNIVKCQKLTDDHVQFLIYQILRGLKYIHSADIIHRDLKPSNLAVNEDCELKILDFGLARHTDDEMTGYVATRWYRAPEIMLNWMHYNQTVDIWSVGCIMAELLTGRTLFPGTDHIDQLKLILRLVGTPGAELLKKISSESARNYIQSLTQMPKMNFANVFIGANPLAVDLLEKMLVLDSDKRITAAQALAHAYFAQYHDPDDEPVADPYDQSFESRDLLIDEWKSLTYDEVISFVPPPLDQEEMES

[45] = target: Serine/threonine-protein kinase PAK 2 (Homo sapiens, UniProt Q13177); assay: Inhibition of PAK2 by HTRF assay
Sequence of Serine/threonine-protein kinase PAK 2 (Q13177 whole entry): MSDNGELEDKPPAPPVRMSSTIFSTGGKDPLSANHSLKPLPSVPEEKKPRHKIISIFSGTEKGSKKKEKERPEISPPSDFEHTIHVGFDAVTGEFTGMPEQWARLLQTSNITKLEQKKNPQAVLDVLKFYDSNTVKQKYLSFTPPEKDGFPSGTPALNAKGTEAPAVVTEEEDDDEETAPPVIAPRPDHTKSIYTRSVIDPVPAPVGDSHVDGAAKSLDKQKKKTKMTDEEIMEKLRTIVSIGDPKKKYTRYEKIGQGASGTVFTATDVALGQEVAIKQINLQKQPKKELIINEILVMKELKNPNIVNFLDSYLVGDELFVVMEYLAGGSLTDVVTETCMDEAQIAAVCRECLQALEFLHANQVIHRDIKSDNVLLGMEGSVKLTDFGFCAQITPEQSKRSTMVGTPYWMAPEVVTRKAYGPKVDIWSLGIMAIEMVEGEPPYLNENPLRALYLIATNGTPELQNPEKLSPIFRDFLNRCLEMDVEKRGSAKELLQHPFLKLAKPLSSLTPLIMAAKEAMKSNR

[46] = target: Macrophage colony-stimulating factor 1 receptor (Homo sapiens, UniProt P07333); assay: Inhibition of cFMS by HTRF assay
Sequence of Macrophage colony-stimulating factor 1 receptor (P07333 whole entry): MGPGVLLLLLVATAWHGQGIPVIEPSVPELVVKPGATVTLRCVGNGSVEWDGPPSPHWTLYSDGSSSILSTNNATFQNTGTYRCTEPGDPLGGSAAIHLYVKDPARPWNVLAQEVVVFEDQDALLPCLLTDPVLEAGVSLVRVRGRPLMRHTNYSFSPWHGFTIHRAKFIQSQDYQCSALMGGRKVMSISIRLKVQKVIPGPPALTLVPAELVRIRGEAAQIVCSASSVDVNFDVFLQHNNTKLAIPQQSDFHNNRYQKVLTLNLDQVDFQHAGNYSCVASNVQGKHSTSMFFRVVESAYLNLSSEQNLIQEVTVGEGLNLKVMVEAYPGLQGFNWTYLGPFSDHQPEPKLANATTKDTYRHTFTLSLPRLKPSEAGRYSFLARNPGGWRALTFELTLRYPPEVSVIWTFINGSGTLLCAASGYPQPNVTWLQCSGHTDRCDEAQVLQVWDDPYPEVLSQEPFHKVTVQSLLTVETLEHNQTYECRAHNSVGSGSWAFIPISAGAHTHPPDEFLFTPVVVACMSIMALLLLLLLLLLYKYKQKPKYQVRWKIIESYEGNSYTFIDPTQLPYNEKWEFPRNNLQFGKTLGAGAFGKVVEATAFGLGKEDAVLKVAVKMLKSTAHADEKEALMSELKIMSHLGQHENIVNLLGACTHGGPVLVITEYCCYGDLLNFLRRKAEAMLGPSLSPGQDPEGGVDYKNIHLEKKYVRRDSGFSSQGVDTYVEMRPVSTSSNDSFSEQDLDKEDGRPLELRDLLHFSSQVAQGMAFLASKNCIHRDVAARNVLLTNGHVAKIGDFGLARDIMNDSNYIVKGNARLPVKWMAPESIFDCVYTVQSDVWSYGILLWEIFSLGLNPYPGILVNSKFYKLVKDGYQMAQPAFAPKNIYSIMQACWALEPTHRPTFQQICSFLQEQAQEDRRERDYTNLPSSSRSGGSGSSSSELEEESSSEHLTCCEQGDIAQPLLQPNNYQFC

[47] = target: Angiopoietin-1 receptor (Homo sapiens, UniProt Q02763); assay: Inhibition of Tie2 by HTRF assay
Sequence of Angiopoietin-1 receptor (Q02763 whole entry): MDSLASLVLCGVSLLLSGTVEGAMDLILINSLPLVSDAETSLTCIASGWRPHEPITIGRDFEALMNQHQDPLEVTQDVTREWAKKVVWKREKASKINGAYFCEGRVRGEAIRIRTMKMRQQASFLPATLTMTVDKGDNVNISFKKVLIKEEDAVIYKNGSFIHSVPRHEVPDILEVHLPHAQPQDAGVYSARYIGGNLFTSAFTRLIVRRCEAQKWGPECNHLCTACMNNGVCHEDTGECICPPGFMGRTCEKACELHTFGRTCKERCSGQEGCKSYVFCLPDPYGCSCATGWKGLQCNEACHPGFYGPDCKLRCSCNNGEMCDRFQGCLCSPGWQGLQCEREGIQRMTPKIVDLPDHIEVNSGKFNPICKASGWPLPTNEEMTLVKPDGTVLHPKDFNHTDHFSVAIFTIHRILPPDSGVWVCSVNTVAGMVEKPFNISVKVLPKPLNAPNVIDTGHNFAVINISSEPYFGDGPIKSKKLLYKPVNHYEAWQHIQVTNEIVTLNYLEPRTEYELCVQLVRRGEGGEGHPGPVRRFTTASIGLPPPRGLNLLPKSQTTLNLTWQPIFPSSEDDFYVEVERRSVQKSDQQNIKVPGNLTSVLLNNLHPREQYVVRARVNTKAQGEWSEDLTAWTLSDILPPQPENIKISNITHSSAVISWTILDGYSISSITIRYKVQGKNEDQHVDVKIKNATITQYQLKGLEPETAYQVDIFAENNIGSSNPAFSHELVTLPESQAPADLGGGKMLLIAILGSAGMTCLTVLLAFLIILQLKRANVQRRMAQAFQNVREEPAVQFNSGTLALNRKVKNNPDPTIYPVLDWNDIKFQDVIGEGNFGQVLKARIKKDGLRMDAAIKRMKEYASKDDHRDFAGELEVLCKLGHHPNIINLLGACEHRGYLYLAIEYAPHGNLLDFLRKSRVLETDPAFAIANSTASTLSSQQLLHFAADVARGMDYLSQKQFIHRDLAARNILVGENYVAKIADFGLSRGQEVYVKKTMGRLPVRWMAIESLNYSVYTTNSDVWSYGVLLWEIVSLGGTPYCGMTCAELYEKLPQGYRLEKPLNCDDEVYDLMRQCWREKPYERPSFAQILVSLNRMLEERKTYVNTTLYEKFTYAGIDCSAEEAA

For `Cc1ccc(NC(=O)c2cccc(C(F)(F)F)c2)cc1C(=O)Nc1cnc(Nc2ccc(N3CCN(C)CC3)cc2)nc1`, the inhibition in vivo at 10 mg/kg [1] was 53%, the IC50 [2] was over 8300 nM and the Vd [3] was 3.29 L/kg. It also gave a Cmax [4] of 49 ng/mL, a clearance [5] of 17.3 mL/min/kg and an IC50 [6] of over 100000 nM. The IC50 [7] was 24 nM, the IC50 [8] was over 20000 nM and the bioavailability [9] was 22%. It also gave an IC50 [10] of over 100000 nM, an IC50 [11] of over 25000 nM and an IC50 [12] of 0.6 nM. It also gave an IC50 [13] of over 85000 nM, an IC50 [14] of 7 nM and an IC50 [15] of over 25000 nM. For the same compound, the Tmax [16] was 4.67 h, the IC50 [17] was 4290 nM and the fraction unbound [18] was 0.022. For the same compound, the concentration [19] was 434 nM, the ED50 [20] was 9.4 mg/kg and the fraction unbound [21] was 0.006. For the same compound, the EC50 unbound [22] was 4 nM, the IC50 [23] was 11 nM and the IC50 [24] was over 25000 nM. The half-life [25] was 3.2 h, the AUC(0-inf) [26] was 419 ng·h/mL and the IC50 [27] was over 5000 nM. For the same compound, the inhibition in vivo at 30 mg/kg [28] was 89%, the IC50 [29] was over 5000 nM and the IC50 [30] was 3 nM. For the same compound, the IC50 [31] was over 100000 nM, the inhibition in vivo at 100 mg/kg [32] was 91% and the IC50 [33] was over 100000 nM. It also gave an IC50 [34] of over 25000 nM, an IC50 [35] of 0.9 nM and an IC50 [36] of over 30000 nM. For the same compound, the concentration [37] was 176 nM, the IC50 [38] was 3 nM and the IC50 [39] was over 5000 nM. The Activity [40] was “Active”, the IC50 [41] was 2 nM and the IC50 [42] was 718 nM. It also gave a concentration [43] of 1540 nM, an IC50 [44] of 5 nM and an IC50 [45] of over 25000 nM. It also gave an IC50 [46] of 40 nM and an IC50 [47] of 9950 nM.
